Assay results reported in patent EP0291007A1, “Rhodanine derivative, process for preparing the same and pharmaceutical composition containing the same” (KAKEN PHARMACEUTICAL CO., LTD., priority 1987, dated 1988).
Marks after values point to notes of the source that are not given here.

Assays:
[1] = system: accumulation of sorbitol in nervous tissues; test: Inhibiting activity of the accumulation of sorbitol in nervous tissues of streptozotocin-diabetic rats; type: in vivo, SD male rats; settings: single dose 48 h after streptozotocin, sciatic nerve sorbitol 5 hours after administration, mean ± spread
Protocol: After preliminary breeding SD male rats (6 weeks old) in this laboratory for 5 days, streptozotocin (made by Sigma Chemical Company) was administered intravenously (45 mg/kg body weight) to the rats to destroy β cells of Langerhans' islets in pancreas. Thus, rats suffering from diabetes were obtained.
After 48 hours from the administration of streptozotocin, the rhodanine derivative suspended in a 5 % aqueous solution of gum arabic was administered orally (100 mg/kg body weight or 25 mg/kg body weight) to the rats suffering from diabetes.
On the other hand, a 5 % aqueous solution of gum arabic having no rhodanine derivative was administered orally (5 mℓ/kg body weight) to the rats (a control group).
After 5 hours from the administration, the rats were sacrificed by the decapitation and bled to death. Immidiately, the sciatic nervous tissues of the rats were excised and frozen with dry ice. The excised sciatic nervous tissues were stored at -70°C until the sorbitol amount was measured.
After the wet weights of nervous tissues were measured, the tissues were homogenized in 1.0 mℓ of distilled water by using a homogenizer, to which 0.2 mℓ of a 4.5 % aqueous solution of barium hydroxide and 0.2 mℓ of a 5 % aqueous solution of zinc sulfate were added. The mixture was centrifuged for 10 minutes at 3,000 rpm to remove a precipitate. Ion exchange resins "Dowex 50 W" (Dow Chemical Co.) and "Duolite A-4" (Sumitomo Chemical Company, Limited.) purchased were added in small amounts to the obtained supernatant to desalt, which was recentrifuged to obtain a supernatant. To 0.5 mℓ of the extract of sorbitol were added 1.0 mt of a 50 mM glycine-sodium hydroxide buffer solution (pH 9.4) containing 0.2 mM nicotinamide adenine dinucleotide (NAD) and 50 µℓ of an enzyme solution containing 83 µg of sorbitol dehydrogenase (commercially available from BOEHRINGER MANNHEIM CORPORATION), and the mixture was reacted at room temperature for one hour. The amount of NADH formed by oxidation of sorbitol was measured by using a spectrofluorimeter and a sorbitol concentration in the extracts was measured. From the obtained results, sorbitol concentrations in nervous tissues (n mole/mg wet weight) were calculated.
A difference between the sorbitol content of the normal rat (0.12 ± 0.01 n mole/mg) and that of the rat suffering from diabetes (0.81 ± 0.06 n mole/mg) was defined as an amount of sorbitol accumulated in the tissues due to diabetes (hereinafter referred to as "sorbitol amount due to diabetes"). Also, a difference between the sorbitol content of the rat suffering from diabetes (0.81 ± 0.06 n moles/mg) and the sorbitol content of the rat suffering from diabetes which was administered the rhodanine derivative was defined as a lowering of the amount of sorbitol due to administration of the rhodanine derivative (hereinafter referred to as "lowering of sorbitol").
A lowering percentage (%) was defined as a percentage of the lowering of sorbitol to the sorbitol amount due to diabetes. The lowering percentages of the rhodanine derivatives (Compound Nos. 1-11) are shown in Table 3 (administered 100 mg/kg body weight) and Table 4 (administered 25 mg/kg body weight) with the number of rats suffering from diabetes.

[2] = Acute toxicity in mice; type: in vivo; settings: mouse, in vivo; oral, mice observed for 2 weeks; read-out: LD₅₀ (oral)
Description: (§1) The acute toxicity in mice was examined by using the rhodanine derivatives of compound Nos. 1, 2, 5, 7 and 10.

[3] = system: male ddY mice; test: Acute toxicity in mice; type: in vivo; settings: oral, up to a dose of 2,000 mg/kg body weight, observed for 2 weeks
Description: as §1

[4] = system: accumulation of galactitol in red blood cells; test: Inhibiting activity of the accumulation of galactitol in red blood cells of galactose-fed dogs; type: in vivo, beagle dogs; settings: 10 mg/kg body weight orally once daily for 3 days; blood 10 hours after galactose 15 g/kg; control group 125 ± 10
Protocol: Each of Compound Nos. 1-11 was administered orally in a dosage of 10 mg/kg body weight once daily for 3 days with a capsule (administration time: 9 a.m. to 9:30 a.m.) to a male or female beagle dogs (body weight: from 8 to 12 kg). As the control group, the dogs were administered with vacant capsules in the same manner as above. Dog foods containing galactose in an amount of 15 g/kg body weight were given to the dogs immediately after the final administration of the capsule. The dogs completely had eaten the dog foods for 5 to 10 minutes. The blood was collected from the cephalic vein of the dog using heparine sodium after 10 hours from the administration of galactose. The collected blood was centrifuged to give red blood cells. The obtained red blood cells were washed twice with a cold physiological saline solution and were hemolysed in distilled water having an equal volume to the red blood cells.
After removing protein from the obtained solution, the resulting solution was treated with ion exchange resins, "Dowex 50 W" and "Duolite A-4", desalted and lyophilized. After subjecting to the pre-treatment of galactitol with trimethyl silyl ether (TMS), the amount of galactitol accumulated in the red blood cells was measured by a gas chromatography.

[5] = system: rats suffering from diabetes; test: Inhibiting activity of the progress of cataract in diabetic rats (lens opacity score by slit lamp); type: in vivo; settings: 100 mg/kg body weight orally daily for 5 weeks; average lens score (0-4) of both eyes; control group 1.46 ± 0.12, normal rats 0
Protocol: Rats suffering from diabetes for the test were produced in the same manner as in Example 13.
From the day after the administration of streptozotocin, each of Compound Nos. 1-11 suspended in a 5 % aqueous solution of gum arabic was administered orally 100 mg/kg body weight daily for 5 weeks to the rats. As the control group, a 5 % aqueous solution of gum arabic having no rhodanine derivative was administered (5 mℓ/kg body weight) to the rats in the same manner as above.
After administering streptozotocin, lenses of the rats were observed by using a slit lump (commercially available from KOWA Co., Ltd. under a trade name "Kowa SL-2") every second or third day for 5 weeks, sufficiently keeping the lenses mydriasis with a mydriatic (commercially available from Santen Pharmaceutical Co., Ltd. under the trade name "MYDRIN-P".
The opaqueness of the lenses was estimated according to the following criteria. Score 0: There was no change in the lenses. […] Score 3: Opacity was observed over the whole of lens' surface and the fundus oculi was not seen as if projected through the lens. Score 4: The nucleus lentis became opaque.
Also, with respect to the normal rats administered with a 5 % aqueous solution of gum arabic, the opaqueness were estimated in the same manner as above.

[6] = system: rats suffering from diabetes; test: Improving activity of the nerve conduction velocity in diabetic rats (tail nerve, method of Miyoshi); type: in vivo; settings: 100 mg/kg body weight once daily for 2 weeks, control group 24.5 ± 1.2, normal rat 38.4 ± 2.2
Protocol: Rats suffering from diabetes for the test were prepared in the same manner as in Example 13.
From the day after the administration of streptozotocin, each of Compound Nos. 1-11 suspended in a 5 % aqueous solution of gum arabic was administrated to the rats in a dosage of 100 mg/kg body weight once daily for 2 weeks.
As the control groups, a 5 % aqueous solution of gum aratic having no rhodanine derivative was administered (5 mℓ/kg body weight) in the same manner as above to the rats.
Two weeks later, the conduction velocity of nerve of the rats was measured in accordance with the method of Miyoshi [Fukuoka Medical Jounal, 62(7), 588 to 603(1971)]. In this test, the nerves of the rats' tails were used as materials studied.
The rats were anesthetized with pentobarbital (30 to 45 mg/kg body weight, intraperitoneal administration), and then the conduction velocities of nerves were measured in a constant-temperature box having a temperature of 40°C.
The nerve of rat's tail was pricked with needle electrodes at a portion of about 1 cm from the anus (the first stimulation point) and at a portion of about 5 cm in a distal direction from the first stimulation point (the second stimulation point). Further, the segmental muscle of the rat's tail was pricked with a coaxial needle electrode at a portion of about 5 cm in a distol direction from the second stimulation point. The longitudinal nerve trunk of the rat's tail was stimulated at the first stimulation point and the second stimulation point to record action potentials of the provoked muscle.
The conduction velocity of nerve was calculated as follows: [formula]
Also, with respect to the normal rats administered with a 5 % aqueous solution of gum arabic, the conduction velocity of nerve was measured in the same manner as above.

[7] = system: accumulation of sorbitol in nervous tissues; test: Inhibiting activity of the accumulation of sorbitol in nervous tissues of streptozotocin-diabetic rats; type: in vivo, SD male rats; settings: comparison compounds with linear alkyl group at 5-position; dose not stated

| Compound | Lowering percentage (%) ([1]; 25 mg/kg body weight orally) | Lowering percentage (%) ([1]; 100 mg/kg body weight orally) | LD50 at 336 h [2] | dead mice [3] | Amount of galactitol in red blood cells (ng/g hemoglobin) [4] | Opaqueness [5] | Conduction velocity of nerve (m/sec) [6] | inhibition of the accumulation of sorbitol [7] |
| --- | --- | --- | --- | --- | --- | --- | --- | --- |
| CCC(CC)C1SC(=S)N(CC(=O)O)C1=O (stereo not drawn) [Compound No. 1, 3-Carboxymethyl-5-(1-ethylpropyl)rhodanine] | 19.8 ± 3.2 % | 51.5 ± 4.8*^3% | > 2000 mg/kg | no dead mice were observed | 82 ± 6 ng/g hemoglobin | 0.98 ± 0.06 | 36.2 ± 3.4 m/sec |  |
| CCC(C)CC1SC(=S)N(CC(=O)O)C1=O (stereo not drawn) [Compound No. 9, 3-Carboxymethyl-5-(2-methylbutyl)rhodanine] | 19.0 ± 3.5 % | 49.9 ± 6.9*^2% |  |  | 69 ± 10 ng/g hemoglobin | 0.72 ± 0.11 | 33.6 ± 2.6 m/sec |  |
| CCC(CC)CC1SC(=S)N(CC(=O)O)C1=O (stereo not drawn) [Compound No. 10, 3-Carboxymethyl-5-(2-ethylbutyl)rhodanine] | 18.2 ± 2.0 % | 42.9 ± 7.6*^2% | > 2000 mg/kg | no dead mice were observed | 90 ± 10 ng/g hemoglobin | 0.74 ± 0.12 | 34.1 ± 4.3 m/sec |  |
| CC(C)C(C)C1SC(=S)N(CC(=O)O)C1=O (stereo not drawn) [Compound No. 2, 3-Carboxymethyl-5-(1,2-dimethylpropyl)-rhodanine] | 36.5 ± 4.7 % | 68.2 ± 10.6*^3% | > 2000 mg/kg | no dead mice were observed | 66 ± 5 ng/g hemoglobin | 0.61 ± 0.07 | 36.6 ± 2.7 m/sec |  |
| CC(C)(C)CC1SC(=S)N(CC(=O)O)C1=O (stereo not drawn) [Compound No. 7, 3-Carboxymethyl-5-(2,2-dimethylpropyl)rhodanine] | 52.5 ± 3.4 % | 80.9 ± 5.8*^3% | > 2000 mg/kg | no dead mice were observed | 48 ± 3 ng/g hemoglobin | 0.32 ± 0.05 | 38.5 ± 4.0 m/sec |  |
| CCCC(CCC)C1SC(=S)N(CC(=O)O)C1=O (stereo not drawn) [Compound No. 6, 3-Carboxymethyl-5-(1-propylbutyl)rhodanine] | 16.1 ± 3.2 % | 28.4 ± 7.4*^1% |  |  | 86 ± 12 ng/g hemoglobin | 0.90 ± 0.12 | 33.0 ± 3.1 m/sec |  |
| CCCC1SC(=S)N(CC(=O)O)C1=O (stereo not drawn) [3-carboxymethyl-5-n-propylrhodanine] |  |  |  |  |  |  |  | hardly inhibited the accumulation of sorbitol |
| CCCC(CC)C1SC(=S)N(CC(=O)O)C1=O (stereo not drawn) [Compound No. 5, 3-Carboxymethyl-5-(1-ethylbutyl)rhodanine] | 15.2 ± 2.1 % | 30.9 ± 8.8*^1% | > 2000 mg/kg | no dead mice were observed | 94 ± 7 ng/g hemoglobin | 0.92 ± 0.10 | 32.4 ± 2.8 m/sec |  |
| O=C(O)CN1C(=O)C(CC2CCCCC2)SC1=S (stereo not drawn) [Compound No. 11, 3-Carboxymethyl-5-cyclo-hexylmethylrhodanine] | 13.0 ± 2.9 % | 27.7 ± 1.6*^1% |  |  | 87 ± 13 ng/g hemoglobin | 0.90 ± 0.13 | 31.8 ± 1.3 m/sec |  |
| CC(C)CCC1SC(=S)N(CC(=O)O)C1=O (stereo not drawn) [Compound No. 8, 3-Carboxymethyl-5-(3-methylbutyl)rhodanine] | 12.2 ± 1.8 % | 23.0 ± 6.2*^1% |  |  | 72 ± 11 ng/g hemoglobin | 0.89 ± 0.10 | 35.2 ± 1.5 m/sec |  |
| CC(CCCCl)C1SC(=S)N(CC(=O)O)C1=O (stereo not drawn) [Compound No. 4, 3-Carboxymethyl-5-(1-methyl-4-chlorobutyl)-rhodanine] | 32.2 ± 4.4 % | 60.1 ± 7.3*^3% |  |  | 59 ± 6 ng/g hemoglobin | 0.68 ± 0.09 | 37.0 ± 3.5 m/sec |  |
| CCC(CCCl)C1SC(=S)N(CC(=O)O)C1=O (stereo not drawn) [Compound No. 3, 3-Carboxymethyl-5-(1-ethyl-3-chloropropyl)-rhodanine] | 34.0 ± 6.2 % | 62.4 ± 9.4*^3% |  |  | 57 ± 12 ng/g hemoglobin | 0.55 ± 0.06 | 34.2 ± 1.8 m/sec |  |
